Test results: the supplement of paper PMC4862054

Assays:
Assay in all cases: normalised response (% of control), CellTox Green; higher = less cell death (100 = DMSO, 0 = benzethonium chloride kill control)
Settings in all cases: incubation time: 72 h
[1] = system: HCC1143
How it was run: (§1)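 Breast cancer cell lines (20 µl suspension) were seeded into 384-well plates holding compound at 5 concentrations in 10-fold steps over a compound-specific 10,000-fold range, then incubated 72 h. CellTox Green fluorescence (485/520 nm) was read first, then CellTiter-Glo luminescence after 10 min at room temperature. Each plate was normalised to 0.1 % DMSO (100) and a positive kill control (0). Each value is the normalised signal at a single concentration of the series.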

[2] = system: MDA-MB-231
How it was run: as §1

[3] = system: DU-4475
How it was run: as §1

[4] = system: CAL-120
How it was run: as §1

[5] = system: CAL-85-1
How it was run: as §1

[6] = system: MDA-MB-453
How it was run: as §1

[7] = system: CAL-51
How it was run: as §1

[8] = system: CAL-148
How it was run: as §1

[9] = system: HCC1599
How it was run: as §1

[10] = system: MCF-10A
How it was run: as §1

[11] = system: HCC1937
How it was run: as §1

[12] = system: HDQ-P1
How it was run: as §1

[13] = system: MDA-MB-436
How it was run: as §1

[14] = system: BT-474
How it was run: as §1

[15] = system: BT-549
How it was run: as §1

[16] = system: Hs578T
How it was run: as §1

[17] = system: MDA-MB-468
How it was run: as §1

[18] = system: MFM-223
How it was run: as §1

| Structure (SMILES) | normalised response [1] | normalised response [2] | normalised response [3] | normalised response [4] | normalised response [5] | normalised response [6] | normalised response [7] | normalised response [8] | normalised response [9] | normalised response [10] | normalised response [11] | normalised response [12] | normalised response [13] | normalised response [14] | normalised response [15] | normalised response [16] | normalised response [17] | normalised response [18] |
| --- | --- | --- | --- | --- | --- | --- | --- | --- | --- | --- | --- | --- | --- | --- | --- | --- | --- | --- |
| COc1cc(Nc2c(C#N)cnc3cc(OCCCN4CCN(C)CC4)c(OC)cc23)c(Cl)cc1Cl [Bosutinib] (10000 nM) | 99.6% | -62.9% | 86.5% | 65.6% | -81.2% | 34.6% | 38.5% | 49% | 62% | -50.5% | 32.9% | 31.8% | 25.9% | 19.3% | 33.1% | 72.5% | -35% | 81.3% |
| Nc1ccn([C@@H]2O[C@H](CO)[C@@H](O)C2(F)F)c(=O)n1 [Gemcitabine] (1000 nM) | 103% | 75.5% | 96.9% | 96.3% | 73% | 97.7% | 55.1% | 61.1% | 86.5% | 90.5% | 108% | 108% | 89.8% | 104% | 88.8% | 123% | 122% | 104% |
| Cc1cn(-c2cc(NC(=O)c3ccc(C)c(Nc4nccc(-c5cccnc5)n4)c3)cc(C(F)(F)F)c2)cn1 [Nilotinib] (10000 nM) | 104% | 84.3% | 103% | 101% | 88.6% | 102% | 92.6% | 98.3% | 105% | 98.3% | 93.1% | 108% | 108% | 100% | 80.7% | 64.7% | 117% | 104% |
| CC1(C)CCC(c2ccc(Cl)cc2)=C(CN2CCN(c3ccc(C(=O)NS(=O)(=O)c4ccc(N[C@H](CCN5CCOCC5)CSc5ccccc5)c(S(=O)(=O)C(F)(F)F)c4)cc3)CC2)C1 [Navitoclax] (1000 nM) | 92.9% | -19.3% | 90.2% | 50.3% | 79.3% | 99.8% | 60.1% | 71.7% | 89.8% | – | 92.8% | 54.7% | 101% | 89.1% | 95.6% | 84.3% | 84.7% | 95.8% |
| Cn1cc(C2=C(c3cn(C4CCN(Cc5ccccn5)CC4)c4ccccc34)C(=O)NC2=O)c2ccccc21 [Enzastaurin] (1000 nM) | 105% | 76.6% | 104% | 103% | 97.7% | 107% | 104% | 60% | 102% | 109% | – | 87.7% | 89.4% | 105% | 143% | 97.7% | 112% | 82% |
| Cn1cc(C2=C(c3cn(C4CCN(Cc5ccccn5)CC4)c4ccccc34)C(=O)NC2=O)c2ccccc21 [Enzastaurin] (10000 nM) | 111% | 113% | 111% | 79.2% | 65% | 108% | 95.7% | 105% | 120% | 94.4% | 121% | 101% | 94.4% | 95.5% | 94.8% | – | 138% | 100% |
| CC(C)C[C@H](NC(=O)[C@@H](COC(C)(C)C)NC(=O)[C@H](Cc1ccc(O)cc1)NC(=O)[C@H](CO)NC(=O)[C@H](Cc1c[nH]c2ccccc12)NC(=O)[C@H](Cc1cnc[nH]1)NC(=O)[C@@H]1CCC(=O)N1)C(=O)N[C@@H](CCCNC(=N)N)C(=O)N1CCC[C@H]1C(=O)NNC(N)=O [Goserelin] (1000 nM) | 112% | – | 96.9% | 102% | 106% | 107% | 105% | 102% | 98.4% | – | 83.8% | 107% | 92.4% | 99.8% | 124% | 102% | 158% | 83.2% |
| CO[C@@]12[C@H](COC(N)=O)C3=C(C(=O)C(C)=C(N)C3=O)N1C[C@@H]1N[C@@H]12 [Mitomycin C] (1000 nM) | 104% | 97.1% | 94.7% | 100% | 97.6% | 100% | 35.3% | 97.8% | 98.1% | 90.1% | 111% | 106% | 78.8% | 94.9% | 123% | 90.8% | – | 101% |
| CC(O)(CS(=O)(=O)c1ccc(F)cc1)C(=O)Nc1ccc(C#N)c(C(F)(F)F)c1 (stereo not given) [Bicalutamide] (1000 nM) | 111% | 115% | 103% | 97.6% | 94.6% | 103% | 112% | 87.8% | 101% | 105% | 59.6% | 104% | 95.5% | 104% | 116% | – | 137% | 97.5% |
